Measured values published in PubChem BioAssay AID328 (DTP/NCI, 2004).
Where “and” joins values, the source holds several entries; their conditions need not be identical. Identical values can stand only once. Toxic doses and inconclusive results are not listed.

Tested on: BDF1 mice, P388 leukemia ip, median survival T/C
Assay: NCI In Vivo Anticancer Drug Screen. Data for tumor model P388 Leukemia (intraperitoneal) in B6D2F1 (BDF1) mice
Details: endpoint: median survival time, higher = longer survival
Outline: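 Reported as T/C, where T is the survival measurement in dosed animals and C the same measurement in vehicle controls.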

[1] = dose: 100.0 mg/kg/injection, schedule: Q04DX003 (ip), vehicle: saline with Tween-80
[2] = dose: 200.0 mg/kg/injection, schedule: Q04DX003 (ip), vehicle: saline with Tween-80
[3] = dose: 400.0 mg/kg/injection, schedule: Q04DX003 (ip), vehicle: saline with Tween-80
[4] = dose: 25.0 mg/kg/injection, schedule: Q01DX009 (ip), vehicle: saline with Tween-80
[5] = dose: 50.0 mg/kg/injection, schedule: Q01DX009 (ip), vehicle: saline with Tween-80
[6] = dose: 100.0 mg/kg/injection, schedule: Q01DX001 (ip), vehicle: Klucel (hydroxypropylcellulose) (HPC)
[7] = dose: 200.0 mg/kg/injection, schedule: Q01DX001 (ip), vehicle: Klucel (hydroxypropylcellulose) (HPC)
[8] = dose: 400.0 mg/kg/injection, schedule: Q01DX001 (ip), vehicle: Klucel (hydroxypropylcellulose) (HPC)
[9] = dose: 12.5 mg/kg/injection, schedule: Q04DX003 (ip), vehicle: saline
[10] = dose: 25.0 mg/kg/injection, schedule: Q04DX003 (ip), vehicle: saline
[11] = dose: 50.0 mg/kg/injection, schedule: Q04DX003 (ip), vehicle: saline
[12] = dose: 100.0 mg/kg/injection, schedule: Q01DX009 (ip), vehicle: saline with Tween-80
[13] = dose: 200.0 mg/kg/injection, schedule: Q01DX009 (ip), vehicle: saline with Tween-80
[14] = dose: 100.0 mg/kg/injection, schedule: Q04DX003 (ip), vehicle: saline
[15] = dose: 400.0 mg/kg/injection, schedule: Q01DX009 (ip), vehicle: saline with Tween-80

## C/C(CC(=O)O)=C(\C)C(=O)O
dose: 25.0 mg/kg/injection, schedule: Q01DX009 (ip), vehicle: water
  T/C: 100 % of control
dose: 50.0 mg/kg/injection, schedule: Q01DX009 (ip), vehicle: water
  T/C: 100 % of control
dose: 100.0 mg/kg/injection, schedule: Q01DX001 (ip), vehicle: saline
  T/C: 96 % of control
dose: 100.0 mg/kg/injection, schedule: Q01DX009 (ip), vehicle: water
  T/C: 97 % of control and 103 % of control
dose: 100.0 mg/kg/injection, schedule: Q04DX003 (ip), vehicle: water
  T/C: 108 % of control
dose: 200.0 mg/kg/injection, schedule: Q01DX001 (ip), vehicle: saline
  T/C: 100 % of control
dose: 200.0 mg/kg/injection, schedule: Q01DX009 (ip), vehicle: water
  T/C: 112 % of control
dose: 400.0 mg/kg/injection, schedule: Q01DX001 (ip), vehicle: saline
  T/C: 100 % of control
dose: 400.0 mg/kg/injection, schedule: Q01DX009 (ip), vehicle: water
  T/C: 105 % of control

## Cn1c2ccccc2c(=O)c2ccc(Cl)cc21
[1]
  T/C: 105 % of control
[2]
  T/C: 105 % of control
[3]
  T/C: 100 % of control

## N=C(N)SCCCCCCCCCCSC(=N)N
[4]
  T/C: 97 % of control
[5]
  T/C: 123 % of control

## CCCCCCCC[N+](CC)(CC)CCOC(=O)C(C1CCCC1)C1CCCC1
dose: 0.9 mg/kg/injection, schedule: Q04DX003 (ip), vehicle: saline
  T/C: 90 % of control
dose: 1.32 mg/kg/injection, schedule: Q01DX001 (ip), vehicle: saline
  T/C: 87 % of control
dose: 1.8 mg/kg/injection, schedule: Q04DX003 (ip), vehicle: saline
  T/C: 109 % of control
dose: 2.65 mg/kg/injection, schedule: Q01DX001 (ip), vehicle: saline
  T/C: 100 % of control
dose: 3.6 mg/kg/injection, schedule: Q01DX009 (ip), vehicle: saline
  T/C: 110 % of control
dose: 3.6 mg/kg/injection, schedule: Q04DX003 (ip), vehicle: saline
  T/C: 109 % of control
dose: 5.3 mg/kg/injection, schedule: Q01DX001 (ip), vehicle: saline
  T/C: 91 % of control
dose: 5.3 mg/kg/injection, schedule: Q04DX003 (ip), vehicle: saline
  T/C: 90 % of control

## CCN1C(=O)c2ccccc2C1=O
dose: 50.0 mg/kg/injection, schedule: Q04DX003 (ip), vehicle: Klucel (hydroxypropylcellulose) (HPC)
  T/C: 104 % of control
[6]
  T/C: 104 % of control
dose: 100.0 mg/kg/injection, schedule: Q04DX003 (ip), vehicle: Klucel (hydroxypropylcellulose) (HPC)
  T/C: 118 % of control
[7]
  T/C: 108 % of control
dose: 200.0 mg/kg/injection, schedule: Q04DX003 (ip), vehicle: Klucel (hydroxypropylcellulose) (HPC)
  T/C: 100 % of control
[8]
  T/C: 104 % of control

## CCC(=O)Nc1cccc(Cl)c1
dose: 100.0 mg/kg/injection, schedule: Q01DX001 (ip), vehicle: saline with Tween-80
  T/C: 109 % of control
dose: 200.0 mg/kg/injection, schedule: Q01DX001 (ip), vehicle: saline with Tween-80
  T/C: 109 % of control
dose: 400.0 mg/kg/injection, schedule: Q01DX001 (ip), vehicle: saline with Tween-80
  T/C: 90 % of control

## Cc1ccc(NCCNCC(C)(C)O)c2c(=O)c3ccccc3sc12
[9]
  T/C: 100 % of control
[10]
  T/C: 120 % of control
[11]
  T/C: 120 % of control
dose: 75.0 mg/kg/injection, schedule: Q04DX003 (ip), vehicle: saline
  T/C: 100 % of control and 115 % of control and 118 % of control
dose: 115.0 mg/kg/injection, schedule: Q04DX003 (ip), vehicle: saline
  T/C: 115 % of control and 120 % of control
dose: 170.0 mg/kg/injection, schedule: Q04DX003 (ip), vehicle: saline
  T/C: 115 % of control and 122 % of control

## NC(=S)N/N=C/c1ccccc1N
[6]
  T/C: 104 % of control
[7]
  T/C: 104 % of control
[8]
  T/C: 108 % of control

## O=C1C2ON=C(c3ccccc3)C2C(=O)N1OS(=O)(=O)c1ccccc1 (stereo not drawn)
[12]
  T/C: 100 % of control
[1]
  T/C: 100 % of control
[13]
  T/C: 109 % of control
[2]
  T/C: 100 % of control
[3]
  T/C: 100 % of control

## COc1cc2c(cc1OC)CC[N+](C)=C2
dose: 3.12 mg/kg/injection, schedule: Q01DX009 (ip), vehicle: saline
  T/C: 102 % of control
dose: 3.12 mg/kg/injection, schedule: Q04DX003 (ip), vehicle: saline
  T/C: 104 % of control
dose: 6.25 mg/kg/injection, schedule: Q01DX009 (ip), vehicle: saline
  T/C: 105 % of control
dose: 6.25 mg/kg/injection, schedule: Q04DX003 (ip), vehicle: saline
  T/C: 97 % of control and 122 % of control
dose: 12.5 mg/kg/injection, schedule: Q01DX009 (ip), vehicle: saline
  T/C: 102 % of control
[9]
  T/C: 95 % of control and 97 % of control
dose: 25.0 mg/kg/injection, schedule: Q01DX009 (ip), vehicle: saline
  T/C: 102 % of control
[10]
  T/C: 91 % of control
dose: 50.0 mg/kg/injection, schedule: Q01DX009 (ip), vehicle: saline
  T/C: 91 % of control
[11]
  T/C: 121 % of control
[14]
  T/C: 100 % of control

## NC(=O)CC(NC(=O)OCc1ccccc1)c1nn[nH]n1 (stereo not drawn)
[12]
  T/C: 90 % of control
[13]
  T/C: 100 % of control
[15]
  T/C: 95 % of control

## NCCc1ccc(OCc2ccccc2)c(OCc2ccccc2)c1
dose: 8.0 mg/kg/injection, schedule: Q01DX009 (ip), vehicle: saline
  T/C: 100 % of control
dose: 12.0 mg/kg/injection, schedule: Q01DX009 (ip), vehicle: saline
  T/C: 104 % of control
[9]
  T/C: 104 % of control
dose: 18.0 mg/kg/injection, schedule: Q01DX009 (ip), vehicle: saline
  T/C: 116 % of control
[10]
  T/C: 104 % of control
[11]
  T/C: 100 % of control

## COC(=O)/C=C1\C(C(=O)OC)=Cc2ccccc2N1C
dose: 12.5 mg/kg/injection, schedule: Q01DX009 (ip), vehicle: saline with Tween-80
  T/C: 100 % of control
[4]
  T/C: 100 % of control
dose: 25.0 mg/kg/injection, schedule: Q04DX003 (ip), vehicle: saline with Tween-80
  T/C: 104 % of control
[5]
  T/C: 105 % of control
dose: 50.0 mg/kg/injection, schedule: Q04DX003 (ip), vehicle: saline with Tween-80
  T/C: 100 % of control
[12]
  T/C: 91 % of control
[1]
  T/C: 87 % of control and 90 % of control
[2]
  T/C: 87 % of control

## CCN(Cc1ccccc1)c1ccc(/C=C/c2nccc3ccccc23)cc1
dose: 100.0 mg/kg/injection, schedule: Q04DX002 (ip), vehicle: saline with Tween-80
  T/C: 116 % of control
dose: 200.0 mg/kg/injection, schedule: Q04DX002 (ip), vehicle: saline with Tween-80
  T/C: 116 % of control
dose: 266.0 mg/kg/injection, schedule: Q04DX002 (ip), vehicle: saline with Tween-80
  T/C: 89 % of control
dose: 400.0 mg/kg/injection, schedule: Q04DX002 (ip), vehicle: saline with Tween-80
  T/C: 123 % of control
dose: 600.0 mg/kg/injection, schedule: Q04DX002 (ip), vehicle: saline with Tween-80
  T/C: 117 % of control

## CC1(C)/C(=C/c2ccccc2)C(=O)c2ccccc21
[9]
  T/C: 107 % of control
[10]
  T/C: 118 % of control
[11]
  T/C: 91 % of control
[14]
  T/C: 103 % of control and 121 % of control
dose: 200.0 mg/kg/injection, schedule: Q04DX003 (ip), vehicle: saline
  T/C: 102 % of control and 112 % of control
dose: 400.0 mg/kg/injection, schedule: Q04DX003 (ip), vehicle: saline
  T/C: 110 % of control

## CC(=O)NC1CC(=O)N(c2ccccc2)C1 (stereo not drawn)
dose: 87.5 mg/kg/injection, schedule: Q01DX009 (ip), vehicle: saline with Tween-80
  T/C: 102 % of control
dose: 175.0 mg/kg/injection, schedule: Q01DX009 (ip), vehicle: saline with Tween-80
  T/C: 111 % of control
dose: 350.0 mg/kg/injection, schedule: Q01DX009 (ip), vehicle: saline with Tween-80
  T/C: 100 % of control

## NC(N)=NC(N)=Nc1ccc([As](=O)(O)O)c(O)c1
dose: 44.0 mg/kg/injection, schedule: Q01DX009 (ip), vehicle: Klucel (hydroxypropylcellulose) (HPC)
  T/C: 156 % of control
dose: 66.0 mg/kg/injection, schedule: Q01DX009 (ip), vehicle: Klucel (hydroxypropylcellulose) (HPC)
  T/C: 156 % of control
dose: 100.0 mg/kg/injection, schedule: Q01DX009 (ip), vehicle: Klucel (hydroxypropylcellulose) (HPC)
  T/C: 169 % of control
dose: 150.0 mg/kg/injection, schedule: Q01DX009 (ip), vehicle: Klucel (hydroxypropylcellulose) (HPC)
  T/C: 169 % of control
dose: 150.0 mg/kg/injection, schedule: Q01DX009 (ip), vehicle: saline
  T/C: 155 % of control

## C[n+]1c(/C=N/NC(N)=S)ccc2ccccc21
[4]
  T/C: 97 % of control
[5]
  T/C: 106 % of control
[12]
  T/C: 113 % of control

## NC(=O)Oc1ccccc1
[12]
  T/C: 104 % of control
[13]
  T/C: 109 % of control
[15]
  T/C: 86 % of control
